Results: patent US7759313B2, “Induction method for cell differentiation” (Obschetstvo S Ogranichennoi Otvetstvennostiyu …, priority 2002, dated 2010)
Values joined by “and” are separate entries in the source; they are usually repeats but may differ in a detail not shown here. Identical values can stand only once. “Also recorded” adds a separate entry of the source. Like-named read-outs stand apart in the source and are kept apart here.

What was measured:
[1] = Complete blood analysis of individual ovarian cancer patients; type: in vivo, human; settings: for Platelets: in 10^9/L (unit assumed)
Procedure: (§1) The effect of Dicarbamine was studied in 13 patients with stage III-IV ovarian cancer who underwent 77 courses of the chemotherapy according to the scheme: 400 mg/m^2 Carboplatin i.v. drop-wise, once +600 mg/m^2 Cyclophosphan i.v. drop-wise, once; the courses were repeated in 28 days. Dicarbamine was prescribed daily at dose 100 mg orally after meals beginning 5 days prior to the first course and then for three weeks. Dosing duration was 26 days, course dose being 2600 mg. Dicarbamine was given again 5 days prior to the second chemotherapy course, and dosing was continued for 21 days. Total duration of Dicarbamine intake during two the chemotherapy courses was 52 days.
Hematopoiesis parameters were assessed dynamically many times before and after conducted the chemotherapy (control) as well as dynamically before and after Dicarbamine dosing in the test group. Below hematopoiesis parameters in individual patients who received the chemotherapy according to the indicated scheme with Dicarbamine or without it are presented.

[2] = system: murine B-16 melanoma cells; assay: IRCP of B-16 cells, peptide derivatives at 100 μM; type: cell-based
Procedure: The study was conducted on a continuous cell culture of murine B-16 melanoma growing in the form of a monolayer in a tissue culture. α-Interferon, selected as a preparation of comparison, was administered at concentration 70 IU/ml.
The tested compounds were transferred into stock solution (1,000 μM), sterilized through filers with 0.22 μm pore diameter and then diluted down to a concentration of 100 μM.
The effect of compounds on cells was assessed on the basis of initial rate of cell proliferation (IRCP). This index was determined by numbering the number of cells in micro colonies during the first days following affection in “test” (with preparations) and “control” (without preparations) dishes, by analyzing 50 colonies in each of them.
Calculations of cell numbers in micro colonies were done for every “point”. Toxicity was judged by B-16 melanoma cell survival, which was determined by the ratio between numbers of the grown colonies in “test” and “control” dishes.

inoculated B-16 melanoma = assay: Distribution of tumor cells by cell cycle phases (DNA content); type: in vivo, mice; settings: 0.5 mg/kg intragastrically daily for 10 days
Procedure: Tests were done on inoculated B-16 melanoma. The effect of Dicarbamine on the distribution of tumor cells was studied on the basis of DNA content at different times following administration of the preparation. From day 6 after the tumor inoculation mice for 10 days were daily intragastrically given with 0.5 mg/kg Dicarbamine. Animals were sacrificed with subsequent investigation of tumor material at days 10, 12, 16 and 18 after inoculation, i.e. days 5 and 7 respectively after Dicarbamine administration as well as in 2 and 4 days after termination of Dicarbamine 10-day dosing.

[3] = Hematological toxicity according to WHO in ovarian cancer patients; type: in vivo, human
Procedure: as §1
Hematological toxicity (leukopenia, neutropenia, thrombocytopenia) was assessed in 13 patients who received 77 courses of the chemotherapy with Dicarbamine as compared with the group of 7 patients who received 25-27 courses of the chemotherapy without Dicarbamine (control).

[4] = not given; remark: listed apart in the source
[5] = with Dicarbamine, Day 0, before starting Dicarbamine
[6] = with Dicarbamine, Day 5, before starting course 1 of CT
[7] = with Dicarbamine, Day 21, after termination of Dicarbamine intake
[8] = with Dicarbamine, Day 33, before course 2 of CT
[9] = with Dicarbamine, course 2, Day 28 after course 1 of CT
[10] = with Dicarbamine, course 2, Day 33
[11] = with Dicarbamine, course 2, Day 54
[12] = with Dicarbamine, course 2, Day 61
[13] = vs chemotherapy without Dicarbamine

In the case of O=C(O)CCCC(=O)NCCc1c[nH]cn1 [Dicarbamine], the Leukocytes ([1]; chemotherapy + Dicarbamine 100 mg daily, individual patients, course 1, Day 0, before starting Dicarbamine) is reported as 5.9 10^9/l and 7.4 10^9/l and 6.6 10^9/l, the “timing of the third course of CT” value ([1]; chemotherapy with Dicarbamine, individual patients) is reported as “in time; also recorded: at term” and the Neutrophils [1, 5] is reported as 4.2 10^9/l and 5.7 10^9/l and 5.0 10^9/l. For the same molecule, the Platelets [1, 5] was 170 and 174, the Leukocytes [1, 6] was 5.5 10^9/l and 7.2 10^9/l and 5.9 10^9/l and the Neutrophils [1, 6] was 4.0 10^9/l and 5.0 10^9/l and 4.2 10^9/l. The Platelets [1, 6] was 164 and 165 and 172, the Leukocytes [1, 7] was 4.7 10^9/l and 6.6 10^9/l and 5.5 10^9/l and the Neutrophils [1, 7] was 3.3 10^9/l and 5.2 10^9/l and 4.4 10^9/l. The Platelets [1, 7] was 160 and 162 and 166, the Leukocytes [1, 8] was 4.0 10^9/l and 5.2 10^9/l and 5.0 10^9/l and the Neutrophils [1, 8] was 2.9 10^9/l and 3.8 10^9/l and 3.4 10^9/l. The Platelets [1, 8] was 158 and 167 and 164, the Neutrophils [1, 9] was 3.2 10^9/l and 5.2 10^9/l and 3.0 10^9/l and the Leukocytes ([1]; with Dicarbamine, course 2, Day 28 after course 1 of CT, before starting Dicarbamine) was 4.9 10^9/l and 7.8 10^9/l and 5.6 10^9/l. For the same molecule, the Platelets [1, 9] was 180 and 165 and 170, the Neutrophils [1, 10] was 3.3 10^9/l and 6.0 10^9/l and 3.2 10^9/l and the Leukocytes ([1]; with Dicarbamine, course 2, Day 33, before starting course of CT) was 5.0 10^9/l and 8.2 10^9/l and 5.8 10^9/l. The Platelets [1, 10] was 170 and 160, the Neutrophils [1, 11] was 3.1 10^9/l and 6.2 10^9/l and 3.4 10^9/l and the Leukocytes ([1]; with Dicarbamine, course 2, Day 54, after termination of Dicarbamine intake) was 4.2 10^9/l and 7.6 10^9/l and 5.7 10^9/l. For the same molecule, the Platelets [1, 11] was 160 and 162 and 176, the Neutrophils [1, 12] was 3.0 10^9/l and 5.8 10^9/l and 3.2 10^9/l and the Leukocytes ([1]; with Dicarbamine, course 2, Day 61, before course 3 of CT) was 4.2 10^9/l and 7.2 10^9/l and 5.5 10^9/l. For the same molecule, the Platelets [1, 12] was 160 and 157 and 165, the “Initial rate of cell proliferation (% cells/colony relative to the control)” value ([2]; 48 hours) was 30.8 ± 2.8% and the “Initial rate of cell proliferation (% cells/colony relative to the control)” value ([2]; 72 hours) was 28.2 ± 2.2%. The “increase in the portion of IIG^2 cells” value (inoculated B-16 melanoma) was 12-14%, the “increase of the portion of interphase tumor cells (IIG^1)” value (inoculated B-16 melanoma) was “≈ 25%” and the “portion of proliferating cells (constant)” value (inoculated B-16 melanoma) was “≈ 30%”. The Terms of death (100 + 15 mg/kg) was “no”, the Total leukocyte number (100 + 15 mg/kg, day 0) was 11.50 ± 2.80 thousand in mm^3 and the Total leukocyte number (100 + 15 mg/kg, day 3) was 4.04 ± 0.44 thousand in mm^3. The Total leukocyte number (100 + 15 mg/kg, day 5) was 10.40 ± 1.59 thousand in mm^3, the Total leukocyte number (100 + 15 mg/kg, day 7) was 14.80 ± 1.76 thousand in mm^3 and the Total leukocyte number (100 + 15 mg/kg, day 21) was 11.80 ± 1.34 thousand in mm^3. For the same molecule, the Terms of death (200 + 30 mg/kg) was 10, the Total leukocyte number (200 + 30 mg/kg, day 3) was 3.10 ± 0.70 thousand in mm^3 and the Total leukocyte number (200 + 30 mg/kg, day 5) was 12.80 ± 1.37 thousand in mm^3. For the same molecule, the Total leukocyte number (200 + 30 mg/kg, day 7) was 15.30 ± 1.26 thousand in mm^3, the Total leukocyte number (200 + 30 mg/kg, day 21) was 12.30 ± 0.89 thousand in mm^3 and the Total leukocyte number (cytostatic doses 200 + 30 mg/kg (Dicarbamine group: 0.5 mg/kg daily 20 days), day 0) was 11.50 ± 2.80 thousand in mm^3. The Leukopenia ([3]; WHO degree 0) was 7.7%, the “Leukopenia, number” value ([3]; WHO degree 0) was 6 and the Neutropenia ([3]; WHO degree 0) was 31.3%. For the same molecule, the “Neutropenia, number” value ([3]; WHO degree 0) was 21, the Thrombocytopenia ([3]; WHO degree 0) was 35.5% and the “Thrombocytopenia, number” value ([3]; WHO degree 0) was 27. The Leukopenia ([3]; WHO degree I) was 23.3%, the “Leukopenia, number” value ([3]; WHO degree I) was 18 and the Neutropenia ([3]; WHO degree I) was 17.9%. The “Neutropenia, number” value ([3]; WHO degree I) was 12, the Thrombocytopenia ([3]; WHO degree I) was 42.1% and the “Thrombocytopenia, number” value ([3]; WHO degree I) was 32. For the same molecule, the Leukopenia ([3]; WHO degree II) was 55.8%, the “Leukopenia, number” value ([3]; WHO degree II) was 43 and the Neutropenia ([3]; WHO degree II) was 34.3%. For the same molecule, the “Neutropenia, number” value ([3]; WHO degree II) was 23, the Thrombocytopenia ([3]; WHO degree II) was 13.1% and the “Thrombocytopenia, number” value ([3]; WHO degree II) was 10. For the same molecule, the Leukopenia ([3]; WHO degree III) was 12.9%, the “Leukopenia, number” value ([3]; WHO degree III) was 10 and the Neutropenia ([3]; WHO degree III) was 7.4%. For the same molecule, the “Neutropenia, number” value ([3]; WHO degree III) was 5, the Thrombocytopenia ([3]; WHO degree III) was 7.8% and the “Thrombocytopenia, number” value ([3]; WHO degree III) was 6. The Leukopenia ([3]; WHO degree III + IV) was 12.9%, the “Leukopenia, number” value ([3]; WHO degree III + IV) was 10 and the Neutropenia ([3]; WHO degree III + IV) was 16.4%. For the same molecule, the “Neutropenia, number” value ([3]; WHO degree III + IV) was 11, the Thrombocytopenia ([3]; WHO degree III + IV) was 9.1% and the “Thrombocytopenia, number” value ([3]; WHO degree III + IV) was 7. The “Leukopenia, number” value ([3]; WHO degree IV) was 0, the Neutropenia ([3]; WHO degree IV) was 8.9% and the “Neutropenia, number” value ([3]; WHO degree IV) was 6. For the same molecule, the Thrombocytopenia ([3]; WHO degree IV) was 1.3%, the “Thrombocytopenia, number” value ([3]; WHO degree IV) was 1 and the “decrease of hematological toxicity on the basis of leukopenia” value [3, 13] was 1.8 fold. The “decrease of hematological toxicity on the basis of neutropenia” value [3, 13] was 2.6 fold, the “decrease of hematological toxicity on the basis of thrombocytopenia” value [3, 13] was 2.2 fold and the Terms of death ([4]; CPH 50 + Cysplatin 2 mg/kg) was “no”. For the same molecule, the Total leukocyte number ([4]; CPH 50 + Cysplatin 2 mg/kg, day 0) was 11.30 ± 2.30 thousand in mm^3, the Total leukocyte number ([4]; CPH 50 + Cysplatin 2 mg/kg, day 3) was 6.70 ± 1.15 thousand in mm^3 and the Total leukocyte number ([4]; CPH 50 + Cysplatin 2 mg/kg, day 5) was 17.00 ± 5.17 thousand in mm^3. The Total leukocyte number ([4]; CPH 50 + Cysplatin 2 mg/kg, day 7) was 14.50 ± 2.00 thousand in mm^3, the Total leukocyte number ([4]; CPH 50 + Cysplatin 2 mg/kg, day 21) was 12.40 ± 0.99 thousand in mm^3 and the Terms of death ([4]; CPH 100 + Cysplatin 4 mg/kg) was “no”. For the same molecule, the Total leukocyte number ([4]; CPH 100 + Cysplatin 4 mg/kg, day 0) was 11.30 ± 2.30 thousand in mm^3, the Total leukocyte number ([4]; CPH 100 + Cysplatin 4 mg/kg, day 3) was 4.14 ± 0.60 thousand in mm^3 and the Total leukocyte number ([4]; CPH 100 + Cysplatin 4 mg/kg, day 5) was 11.40 ± 1.10 thousand in mm^3. It also gave a Total leukocyte number ([4]; CPH 100 + Cysplatin 4 mg/kg, day 7) of 14.90 ± 1.32 thousand in mm^3, a Total leukocyte number ([4]; CPH 100 + Cysplatin 4 mg/kg, day 21) of 11.80 ± 1.32 thousand in mm^3 and a Total leukocyte number ([4]; CPH 200 + Cysplatin 8 mg/kg i.p. once (Dicarbamine group: 0.5 mg/kg daily 20 days), day 0) of 11.30 ± 2.30 thousand in mm^3. The Total leukocyte number ([4]; CPH 200 + Cysplatin 8 mg/kg, day 3) was 2.32 ± 0.49 thousand in mm^3, the Total leukocyte number ([4]; CPH 200 + Cysplatin 8 mg/kg, day 5) was 6.60 ± 0.90 thousand in mm^3 and the Total leukocyte number ([4]; CPH 200 + Cysplatin 8 mg/kg, day 7) was 10.40 ± 1.54 thousand in mm^3. It also gave a Total leukocyte number ([4]; mouse, in vivo) of 12.30 ± 1.56 thousand in mm^3.
